Values belong to the molecule of their own block, whether it stands above or below them.
Structure (SMILES): C[C@H](NC(=O)c1c(CN2CCNC(=O)C2)c(-c2ccccc2)nc2cc(F)ccc12)C1CCCCC1 [Example 35, 7-Fluoro-3-(3-oxopiperazin-1-ylmethyl)-2-phenylquinoline-4-carboxylic acid ((S)-1-cyclohexyl-ethyl)-amide]
- melting point: 163 to 165 °C

Structure (SMILES): C[C@H](NC(=O)c1c(CN2CCNCC2)c(-c2ccccc2)nc2ccc(F)cc12)C1CCCCC1 [Example 24, 6-Fluoro-2-phenyl-3-piperazin-1-ylmethylquinoline-4-carboxylic acid ((S)-1-cyclohexylethyl)-amide]
- melting point: 154 to 158 °C

Structure (SMILES): C[C@H](NC(=O)c1c(CN2CCNC(=O)C2)c(-c2ccc(C(F)(F)F)cc2)nc2ccccc12)C1CCCCC1 [Example 45, 3-(3-Oxopiperazin-1-ylmethyl)-2-(4-trifluoromethylphenyl)quinoline-4-carboxylic acid ((S)-1-cyclohexylethyl)-amide]
- melting point: 214 to 217 °C

Structure (SMILES): C[C@H](NC(=O)c1c(CN2CCNCC2)c(-c2ccccc2)nc2ccccc12)c1ccc(O)cc1 [Example 6, 2-Phenyl-3-piperazin-1-ylmethyl-quinoline-4-carboxylic acid [(S)-1-(4-hydroxy-phenyl)-ethyl]-amide]
- melting point: 163 °C

Structure (SMILES): COc1cc2nc(-c3ccccc3)c(CN3CCNCC3)c(C(=O)N[C@@H](C)C3CCCCC3)c2cc1OC [Example 10, 6,7-Dimethoxy-2-phenyl-3-piperazin-1-ylmethyl-quinoline-4-carboxylic acid ((S)-1-cyclohexyl-ethyl)-amide]
- melting point: 130 to 132 °C

Structure (SMILES): CC[C@H](NC(=O)c1c(CN2CCNC(=O)C2)c(-c2ccccc2)nc2ccccc12)c1ccccc1 [Example 40, 3-(3-Oxo-piperazin-1-ylmethyl)-2-phenyl-quinoline-4-carboxylic acid((S)-1-phenyl-propyl)-amide]
- melting point: 160 °C

Structure (SMILES): COc1ccc([C@H](C)NC(=O)c2c(CN3CCNCC3)c(-c3ccccc3)nc3ccccc23)cc1 [Example 2, 2-Phenyl-3-piperazin-1-ylmethyl-quinoline-4-carboxylic acid[(S)-1-(4-methoxy-phenyl)-ethyl]-amide]
- melting point: 109 to 111 °C

Structure (SMILES): C[C@H](NC(=O)c1c(CN2CCNC(=O)C2)c(-c2ccccc2)nc2ccc(F)cc12)C1CCCCC1 [Example 32, 6-Fluoro-3-(3-oxo-piperazin-1-ylmethyl)-2-phenyl-quinoline-4-carboxylic acid ((S)-1-cyclohexyl-ethyl)-amide]
- melting point: 230 °C

Structure (SMILES): COc1cccc([C@H](C)NC(=O)c2c(CN3CCNCC3)c(-c3ccccc3)nc3ccccc23)c1 [Example 3, 2-Phenyl-3-piperazin-1-ylmethyl-quinoline-4-carboxylic acid[(S)-1-(3-methoxy-phenyl)-ethyl]-amide]
- melting point: 147 to 153 °C

Structure (SMILES): CCOC(=O)C1CCCN(/C(=C\[N+](=O)[O-])N2CCN(Cc3c(-c4ccccc4)nc4ccccc4c3C(=O)N[C@@H](C)c3ccccc3)CC2)C1 (stereo partly drawn) [Example 15, 1-(2-Nitro-1-{4-[2-phenyl-4-((S)-1-phenyl-ethylcarbamoyl)-quinolin-3-ylmethyl]-piperazin-1-yl}-vinyl)-piperidine-3-carboxylic acid ethyl ester]
- melting point: 120 to 121 °C

Structure (SMILES): C[C@H](NC(=O)c1c(CN2CCNC(=O)C2)c(-c2ccccc2F)nc2ccccc12)C1CCCCC1 [Example 46, 2-(2-Fluorophenyl)-3-(3-oxopiperazin-1-ylmethyl)-quinoline-4-carboxylic acid ((S)-1-cyclohexyl-ethyl)-amide]
- melting point: 167 to 169 °C

Structure (SMILES): C[C@H](NC(=O)c1c(CN2CCNC(=O)C2)c(-c2ccccc2)nc2c(F)cccc12)C1CCCCC1 [Example 39, 8-Fluoro-3-(3-oxo-piperazin-1-ylmethyl)-2-phenylquinoline-4-carboxylic acid ((S)-1-cyclohexyl-ethyl)-amide]
- melting point: 165 °C

Structure (SMILES): C[C@H](NC(=O)c1c(CN2CCNCC2)c(-c2ccccc2)nc2ccccc12)c1cccc(O)c1 [Example 4, 2-Phenyl-3-piperazin-1-ylmethyl-quinoline-4-carboxylic acid [(S)-1-(3-hydroxy-phenyl)-ethyl]-amide]
- melting point: 240 to 244 °C

Other lines, results leading:

- melting point: 136 °C
Structure (SMILES): C[C@H](NC(=O)c1c(CN2CCN(CC(Cc3ccccc3)C(=O)O)CC2)c(-c2ccccc2)nc2ccccc12)C1CCCCC1 (mixture of isomers) [Example 17, 2-Benzyl-3-{4-[4-((S)-1-cyclohexyl-ethylcarbamoyl)-2-phenyl-quinolin-3-ylmethyl]-piperazin-1-yl}-propionic acid]

- melting point: 120 to 121 °C
Structure (SMILES): C[C@H](NC(=O)c1c(CN2CCN(CCS(C)(=O)=O)CC2)c(-c2ccccc2)nc2ccccc12)C1CCCCC1 [Example 21, 3-[4-(2-Methanesulfonyl-ethyl)-piperazin-1-ylmethyl]-2-phenyl-quinoline-4-carboxylic acid ((S)-1-cyclohexyl-ethyl)-amide]

- melting point: 124 °C
Structure (SMILES): C[C@H](NC(=O)c1c(CN2CC(=O)NC(=O)C2)c(-c2ccccc2)nc2ccccc12)C1CCCCC1 [Example 29, 3-(3,5-Dioxopiperazin-1-ylmethyl)-2-phenylquinoline-4-carboxylic acid ((S)-1-cyclohexylethyl)-amide]

- melting point: 251 °C
Structure (SMILES): C[C@H](NC(=O)c1c(CN2CC(=O)NCC2=O)c(-c2ccccc2)nc2ccccc12)C1CCCCC1 [Example 31, 3-(2,5-Dioxo-piperazin-1-ylmethyl)-2-phenyl-quinoline-4-carboxylic acid ((S)1-cyclohexylethyl)-amide]

- melting point: 192 to 195 °C
Structure (SMILES): C[C@H](NC(=O)c1c(CN2CCN(CCC(=O)O)CC2)c(-c2ccccc2)nc2ccccc12)C1CCCCC1 [Example 18, 3-{4-[4-((S)-1-Cyclohexyl-ethylcarbamoyl)-2-phenyl-quinolin-3-ylmethyl]-piperazin-1-yl}-propionic acid]

- melting point: 125 to 130 °C
Structure (SMILES): C[C@H](NC(=O)c1c(CN2CCN(CC(N)=O)CC2)c(-c2ccccc2)nc2ccccc12)C1CCCCC1 [Example 19, 3-(4-Carbamoylmethyl-piperazin-1-ylmethyl)-2-phenyl-quinoline-4-carboxylic acid ((S)-1-cyclohexyl-ethyl)-amide]

- melting point: 160 °C
Structure (SMILES): C[C@H](NC(=O)c1c(CN2CCN(CCN3CCCCC3)C(=O)C2)c(-c2ccccc2)nc2ccccc12)C1CCCCC1 [Example 43, 3-[3-Oxo-4-(2-piperidin-1-ylethyl)piperazin-1-ylmethyl]-2-phenylquinoline-4-carboxylic acid ((S)-1-cyclohexylethyl)amide]

- melting point: 212 °C
Structure (SMILES): C[C@H](NC(=O)c1c(CN2CCNCC2=O)c(-c2ccccc2)nc2ccccc12)C1CCCCC1 [Example 30, 3-(2-Oxopiperazin-1-ylmethyl)-2-phenylquinoline-4-carboxylic acid ((S)-1-cyclohexylethyl)-amide]

- melting point: 144 to 145 °C
Structure (SMILES): C[C@H](NC(=O)c1c(CN2CCN(CC(C(=O)O)c3ccccc3)CC2)c(-c2ccccc2)nc2ccccc12)C1CCCCC1 (stereo partly drawn) [Example 22, 3-{4-[4-((S)-1-Cyclohexyl-ethylcarbamoyl)-2-phenyl-quinolin-3-ylmethyl]-piperazin-1-yl}-2-phenyl-propionic acid]

- melting point: 90 to 91 °C
Structure (SMILES): CCOC(=O)C(CN1CCN(Cc2c(-c3ccccc3)nc3ccccc3c2C(=O)N[C@@H](C)C2CCCCC2)CC1)c1ccccc1 (stereo partly drawn) [Example 20, 3-{4-[4-((S)-1-Cyclohexyl-ethylcarbamoyl)-2-phenyl-quinolin-3-ylmethyl]-piperazin-1-yl}-2-phenyl-propionic acid ethyl ester]

— patent US20060223819A1, “Quinoline Derivatives as NK-3 Antagonists” (GlaxoSmithKline S.P.A. & Laboratoire, priority 2000, published 2006)
